# Assay results taken from the supplement of paper PMC10307832.
# How the values were obtained:
# Experiment in all cases: relative viability (nuclei count vs DMSO), 5 days (fraction); higher = more cells survive
# A549 = tested on: A549
# Procedure, shortened: (§1)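 The day after seeding in 1536-well plates, lung cancer cell lines were treated by pin tool with a single drug, or with a fixed anchor-drug dose together with five library-drug doses (not always all listed) in √10 steps. After 5 days, a combined fix-and-stain solution (final 0.05% Triton X-100, 1% formaldehyde, 1 ug/ml Hoechst) was added. Nuclei counted on 4× images gave relative viability as treated counts over vehicle counts, reported as the median of duplicate plates.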
# ABC-1 = tested on: ABC-1
# Procedure, shortened: as §1
# COR-L23 = tested on: COR-L23
# Procedure, shortened: as §1
# Calu-6 = tested on: Calu-6
# Procedure, shortened: as §1
# ChaGo-K-1 = tested on: ChaGo-K-1
# Procedure, shortened: as §1
# EBC-1 = tested on: EBC-1
# Procedure, shortened: as §1
# IA-LM = tested on: IA-LM
# Procedure, shortened: as §1
# NCI-H1299 = tested on: NCI-H1299
# Procedure, shortened: as §1
# NCI-H1437 = tested on: NCI-H1437
# Procedure, shortened: as §1
# NCI-H1623 = tested on: NCI-H1623
# Procedure, shortened: as §1
# NCI-H1651 = tested on: NCI-H1651
# Procedure, shortened: as §1
# NCI-H1703 = tested on: NCI-H1703
# Procedure, shortened: as §1
# SK-MES-1 = tested on: SK-MES-1
# Procedure, shortened: as §1
# SW 1573 = tested on: SW 1573
# Procedure, shortened: as §1
structure (smiles),measurement,setting,value
COc1nc(C)cnc1NS(=O)(=O)c1cccnc1-c1ccc(-c2nnco2)cc1 [Zibotentan] + COc1cc2c(Oc3ccc(NC(=O)C4(C(=O)Nc5ccc(F)cc5)CC4)cc3F)ccnc2cc1OCCCN1CCOCC1 [Foretinib] (partner 0.25 µM),relative viability,A549; first compound 0.08 µM,1.02
same,relative viability,A549; first compound 0.253 µM,0.916
same,relative viability,A549; first compound 0.8 µM,1.1
same,relative viability,A549; first compound 2.53 µM,1.1
same,relative viability,ABC-1; first compound 0.08 µM,0.9
same,relative viability,ABC-1; first compound 0.253 µM,0.936
same,relative viability,ABC-1; first compound 0.8 µM,1.06
same,relative viability,ABC-1; first compound 2.53 µM,1.16
same,relative viability,COR-L23; first compound 0.08 µM,1.21
same,relative viability,COR-L23; first compound 0.253 µM,0.926
same,relative viability,COR-L23; first compound 0.8 µM,0.989
same,relative viability,COR-L23; first compound 2.53 µM,0.894
same,relative viability,Calu-6; first compound 0.08 µM,0.811
same,relative viability,Calu-6; first compound 0.253 µM,0.947
same,relative viability,Calu-6; first compound 0.8 µM,0.849
same,relative viability,Calu-6; first compound 2.53 µM,0.895
same,relative viability,ChaGo-K-1; first compound 0.08 µM,0.941
same,relative viability,ChaGo-K-1; first compound 0.253 µM,0.926
same,relative viability,ChaGo-K-1; first compound 0.8 µM,0.977
same,relative viability,ChaGo-K-1; first compound 2.53 µM,0.841
same,relative viability,EBC-1; first compound 0.08 µM,0.0991
same,relative viability,EBC-1; first compound 0.253 µM,0.0961
same,relative viability,EBC-1; first compound 0.8 µM,0.103
same,relative viability,EBC-1; first compound 2.53 µM,0.113
same,relative viability,IA-LM; first compound 0.08 µM,1.06
same,relative viability,IA-LM; first compound 0.253 µM,1.15
same,relative viability,IA-LM; first compound 0.8 µM,1.09
same,relative viability,IA-LM; first compound 2.53 µM,1.3
same,relative viability,NCI-H1299; first compound 0.08 µM,1.11
same,relative viability,NCI-H1299; first compound 0.253 µM,1.05
same,relative viability,NCI-H1299; first compound 0.8 µM,1.05
same,relative viability,NCI-H1299; first compound 2.53 µM,1.13
same,relative viability,NCI-H1437; first compound 0.08 µM,1.27
same,relative viability,NCI-H1437; first compound 0.253 µM,1.18
same,relative viability,NCI-H1437; first compound 0.8 µM,1.26
same,relative viability,NCI-H1437; first compound 2.53 µM,1.26
same,relative viability,NCI-H1623; first compound 0.08 µM,0.84
same,relative viability,NCI-H1623; first compound 0.253 µM,0.765
same,relative viability,NCI-H1623; first compound 0.8 µM,0.855
same,relative viability,NCI-H1623; first compound 2.53 µM,0.771
same,relative viability,NCI-H1651; first compound 0.08 µM,0.815
same,relative viability,NCI-H1651; first compound 0.253 µM,0.569
same,relative viability,NCI-H1651; first compound 0.8 µM,0.488
same,relative viability,NCI-H1651; first compound 2.53 µM,0.99
same,relative viability,NCI-H1703; first compound 0.08 µM,0.422
same,relative viability,NCI-H1703; first compound 0.253 µM,0.347
same,relative viability,NCI-H1703; first compound 0.8 µM,0.395
same,relative viability,NCI-H1703; first compound 2.53 µM,0.314
same,relative viability,SK-MES-1; first compound 0.08 µM,0.974
same,relative viability,SK-MES-1; first compound 0.253 µM,0.886
same,relative viability,SK-MES-1; first compound 0.8 µM,0.974
same,relative viability,SK-MES-1; first compound 2.53 µM,1.02
same,relative viability,SW 1573; first compound 0.08 µM,0.966
same,relative viability,SW 1573; first compound 0.253 µM,0.692
same,relative viability,SW 1573; first compound 0.8 µM,0.983
same,relative viability,SW 1573; first compound 2.53 µM,0.82
O=c1cc(-c2cccc3c2Sc2ccccc2S3)oc(N2CCOCC2)c1 + N=C(N)NC(=N)NCCc1ccccc1 [Phenformin] (partner 250 µM),relative viability,A549; first compound 0.08 µM,0.202
same,relative viability,A549; first compound 0.253 µM,0.097
same,relative viability,A549; first compound 0.8 µM,0.315
same,relative viability,A549; first compound 2.53 µM,0.129
same,relative viability,A549; first compound 8 µM,0.28
same,relative viability,ABC-1; first compound 0.08 µM,0.228
same,relative viability,ABC-1; first compound 0.253 µM,0.23
same,relative viability,ABC-1; first compound 0.8 µM,0.23
same,relative viability,ABC-1; first compound 2.53 µM,0.234
same,relative viability,ABC-1; first compound 8 µM,0.277
same,relative viability,COR-L23; first compound 0.08 µM,0.478
same,relative viability,COR-L23; first compound 0.253 µM,0.484
same,relative viability,COR-L23; first compound 0.8 µM,0.511
same,relative viability,COR-L23; first compound 2.53 µM,0.459
same,relative viability,COR-L23; first compound 8 µM,0.545
same,relative viability,ChaGo-K-1; first compound 0.08 µM,0.463
same,relative viability,ChaGo-K-1; first compound 0.253 µM,0.53
same,relative viability,ChaGo-K-1; first compound 0.8 µM,0.56
same,relative viability,ChaGo-K-1; first compound 2.53 µM,0.344
same,relative viability,ChaGo-K-1; first compound 8 µM,0.509
same,relative viability,NCI-H1437; first compound 0.08 µM,0.271
same,relative viability,NCI-H1437; first compound 0.253 µM,0.683
same,relative viability,NCI-H1437; first compound 0.8 µM,0.238
same,relative viability,NCI-H1437; first compound 2.53 µM,0.277
same,relative viability,NCI-H1437; first compound 8 µM,0.343
same,relative viability,NCI-H1623; first compound 0.08 µM,0.603
same,relative viability,NCI-H1623; first compound 0.253 µM,0.68
same,relative viability,NCI-H1623; first compound 0.8 µM,0.593
same,relative viability,NCI-H1623; first compound 2.53 µM,0.535
same,relative viability,NCI-H1623; first compound 8 µM,0.576
same,relative viability,NCI-H1651; first compound 0.08 µM,0.342
same,relative viability,NCI-H1651; first compound 0.253 µM,0.526
same,relative viability,NCI-H1651; first compound 0.8 µM,0.423
same,relative viability,NCI-H1651; first compound 2.53 µM,0.362
same,relative viability,NCI-H1651; first compound 8 µM,0.299
same,relative viability,SK-MES-1; first compound 0.08 µM,0.681
same,relative viability,SK-MES-1; first compound 0.253 µM,0.762
same,relative viability,SK-MES-1; first compound 0.8 µM,0.649
same,relative viability,SK-MES-1; first compound 2.53 µM,0.642
same,relative viability,SK-MES-1; first compound 8 µM,0.666
same,relative viability,SW 1573; first compound 0.08 µM,0.38
same,relative viability,SW 1573; first compound 0.253 µM,0.369
same,relative viability,SW 1573; first compound 0.8 µM,0.339
same,relative viability,SW 1573; first compound 2.53 µM,0.347
same,relative viability,SW 1573; first compound 8 µM,0.364
